The values that follow come from the supplement of paper PMC10307832.

Experiment in all cases: relative viability (nuclei count vs DMSO), 5 days (fraction); higher = more cells survive
Compound in the assay “Crizotinib + Vorinostat”: C[C@@H](Oc1cc(-c2cnn(C3CCNCC3)c2)cnc1N)c1c(Cl)ccc(F)c1Cl [Crizotinib] + O=C(CCCCCCC(=O)Nc1ccccc1)NO [Vorinostat] (partner 1 µM)
The method in brief: (§1)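 Relative viability divides the nuclei count in treated wells by that in vehicle wells. Lung cancer cell lines were seeded in 1536-well plates, dosed by pin tool the next day, and fixed and stained after 5 days in one step with final 0.05% Triton X-100, 1% formaldehyde and 1 ug/ml Hoechst. Dosing was a single drug or a fixed anchor-drug dose plus five library-drug doses (not always all listed) in √10 steps, and values are medians of duplicate plates imaged at 4×.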

Compound in the assay “Carfilzomib + OSI-027”: CC(C)C[C@H](NC(=O)[C@H](CCc1ccccc1)NC(=O)CN1CCOCC1)C(=O)N[C@@H](Cc1ccccc1)C(=O)N[C@@H](CC(C)C)C(=O)[C@@]1(C)CO1 [Carfilzomib] + COc1cccc2cc(-c3nc([C@H]4CC[C@H](C(=O)O)CC4)n4ncnc(N)c34)[nH]c12 [OSI-027] (partner 0.5 µM)
In outline: as §1

Compound in the assay “Olaparib + Pictilisib”: O=C(c1cc(Cc2n[nH]c(=O)c3ccccc23)ccc1F)N1CCN(C(=O)C2CC2)CC1 [Olaparib] + CS(=O)(=O)N1CCN(Cc2cc3nc(-c4cccc5[nH]ncc45)nc(N4CCOCC4)c3s2)CC1 [Pictilisib] (partner 1 µM)
The method in brief: as §1

Compound in the assay “Carfilzomib + Olaparib”: CC(C)C[C@H](NC(=O)[C@H](CCc1ccccc1)NC(=O)CN1CCOCC1)C(=O)N[C@@H](Cc1ccccc1)C(=O)N[C@@H](CC(C)C)C(=O)[C@@]1(C)CO1 [Carfilzomib] + O=C(c1cc(Cc2n[nH]c(=O)c3ccccc23)ccc1F)N1CCN(C(=O)C2CC2)CC1 [Olaparib] (partner 8 µM)
In outline: as §1

201T: the relative viability in the assay with Crizotinib + Vorinostat (first compound 0.01 µM) worked out at 0.899; with Crizotinib + Vorinostat (first compound 0.03162 µM), 1.01; with Crizotinib + Vorinostat (first compound 0.1 µM), 0.98; in the assay with Crizotinib + Vorinostat (first compound 0.3162 µM) it was 0.974; in the assay with Crizotinib + Vorinostat (first compound 1 µM) it was 1.04; with Carfilzomib + OSI-027 (first compound 0.001 µM), 0.749. In addition, the relative viability with Carfilzomib + OSI-027 (first compound 0.003162 µM) came out at 0.795; with Carfilzomib + OSI-027 (first compound 0.01 µM), 0.884; with Carfilzomib + OSI-027 (first compound 0.03162 µM), 0.437; with Carfilzomib + OSI-027 (first compound 0.1 µM), 0.31; with Olaparib + Pictilisib (first compound 0.08 µM), 0.669; in the assay with Olaparib + Pictilisib (first compound 0.253 µM), 0.665. Besides, the relative viability in the assay with Olaparib + Pictilisib (first compound 2.53 µM) is 0.631; in the assay with Olaparib + Pictilisib (first compound 8 µM), 0.704; in the assay with Carfilzomib + Olaparib (first compound 0.001 µM) it was 0.83; with Carfilzomib + Olaparib (first compound 0.003162 µM), 0.838; with Carfilzomib + Olaparib (first compound 0.01 µM), 0.856; in the assay with Carfilzomib + Olaparib (first compound 0.03162 µM) it was 0.907. For the same cell line, the relative viability in the assay with Carfilzomib + Olaparib (first compound 0.1 µM) was 0.546.
Regarding A549, the relative viability with Olaparib + Pictilisib (first compound 0.08 µM) came out at 0.636; with Olaparib + Pictilisib (first compound 0.253 µM), 0.398; with Olaparib + Pictilisib (first compound 2.53 µM), 0.456; with Olaparib + Pictilisib (first compound 8 µM), 0.376; in the assay with Carfilzomib + Olaparib (first compound 0.001 µM) it was 0.344; in the assay with Carfilzomib + Olaparib (first compound 0.003162 µM), 0.301. In addition, the results for the relative viability with Carfilzomib + Olaparib (first compound 0.01 µM), in the assay with Carfilzomib + Olaparib (first compound 0.03162 µM) and in the assay with Carfilzomib + Olaparib (first compound 0.1 µM) were 0.405, 0.0248 and 0.0273, respectively.
Consider A-427, for which the relative viability came out at 0.836 with Crizotinib + Vorinostat (first compound 0.01 µM); 0.871 with Crizotinib + Vorinostat (first compound 0.03162 µM); 0.876 with Crizotinib + Vorinostat (first compound 0.1 µM); 0.899 with Crizotinib + Vorinostat (first compound 1 µM); 0.47 with Carfilzomib + OSI-027 (first compound 0.001 µM); 0.542 with Carfilzomib + OSI-027 (first compound 0.003162 µM). Also, the relative viability in the assay with Carfilzomib + OSI-027 (first compound 0.01 µM) was found to be 0.395; in the assay with Carfilzomib + OSI-027 (first compound 0.03162 µM), 0.145; with Carfilzomib + OSI-027 (first compound 0.1 µM), 0.132; with Olaparib + Pictilisib (first compound 0.08 µM) it was 0.697; with Olaparib + Pictilisib (first compound 0.253 µM), 0.571; with Olaparib + Pictilisib (first compound 2.53 µM) it was 0.547. The relative viability in the assay with Olaparib + Pictilisib (first compound 8 µM) was determined as 0.584; in the assay with Carfilzomib + Olaparib (first compound 0.001 µM) it was 0.782; in the assay with Carfilzomib + Olaparib (first compound 0.003162 µM), 0.827; with Carfilzomib + Olaparib (first compound 0.01 µM), 0.749; with Carfilzomib + Olaparib (first compound 0.03162 µM) it was 0.271; with Carfilzomib + Olaparib (first compound 0.1 µM), 0.147.
Take ABC-1: the relative viability with Crizotinib + Vorinostat (first compound 0.01 µM) turned out to be 1.04; with Crizotinib + Vorinostat (first compound 0.03162 µM) it was 1.06; with Crizotinib + Vorinostat (first compound 0.1 µM) it was 1.22; with Crizotinib + Vorinostat (first compound 1 µM) it was 1.02; with Carfilzomib + OSI-027 (first compound 0.001 µM), 0.431; with Carfilzomib + OSI-027 (first compound 0.003162 µM), 0.289. Moreover, the relative viability was found to be 0.276 with Carfilzomib + OSI-027 (first compound 0.01 µM); 0.158 with Carfilzomib + OSI-027 (first compound 0.03162 µM); 0.171 in the assay with Carfilzomib + OSI-027 (first compound 0.1 µM); 0.916 with Olaparib + Pictilisib (first compound 0.08 µM); 0.777 with Olaparib + Pictilisib (first compound 0.253 µM); 0.65 in the assay with Olaparib + Pictilisib (first compound 2.53 µM). Besides, the relative viability with Olaparib + Pictilisib (first compound 8 µM) is 0.625; with Carfilzomib + Olaparib (first compound 0.001 µM), 0.768; with Carfilzomib + Olaparib (first compound 0.003162 µM) it was 0.846; in the assay with Carfilzomib + Olaparib (first compound 0.01 µM) it was 0.348; with Carfilzomib + Olaparib (first compound 0.03162 µM), 0.324; in the assay with Carfilzomib + Olaparib (first compound 0.1 µM), 0.26.
In the case of BEN, the relative viability in the assay with Crizotinib + Vorinostat (first compound 0.01 µM) worked out at 0.553; in the assay with Crizotinib + Vorinostat (first compound 0.03162 µM) it was 0.55; in the assay with Crizotinib + Vorinostat (first compound 0.1 µM) it was 0.628; with Crizotinib + Vorinostat (first compound 0.3162 µM), 0.506; in the assay with Crizotinib + Vorinostat (first compound 1 µM), 0.573; in the assay with Carfilzomib + OSI-027 (first compound 0.001 µM), 0.312. The relative viability was determined as 0.313 with Carfilzomib + OSI-027 (first compound 0.003162 µM); 0.3 with Carfilzomib + OSI-027 (first compound 0.01 µM); 0.294 in the assay with Carfilzomib + OSI-027 (first compound 0.03162 µM); 0.263 with Carfilzomib + OSI-027 (first compound 0.1 µM); 0.52 in the assay with Olaparib + Pictilisib (first compound 0.08 µM); 0.551 with Olaparib + Pictilisib (first compound 0.253 µM). Also, the relative viability is 0.593 in the assay with Olaparib + Pictilisib (first compound 2.53 µM); 0.674 with Olaparib + Pictilisib (first compound 8 µM); 1.02 with Carfilzomib + Olaparib (first compound 0.001 µM); 1.29 with Carfilzomib + Olaparib (first compound 0.003162 µM); 1.18 in the assay with Carfilzomib + Olaparib (first compound 0.01 µM); 1.03 with Carfilzomib + Olaparib (first compound 0.03162 µM). For the same cell line, the relative viability with Carfilzomib + Olaparib (first compound 0.1 µM) worked out at 0.376.
On to CAL-12T, for which the relative viability in the assay with Crizotinib + Vorinostat (first compound 0.01 µM) is 0.855; in the assay with Crizotinib + Vorinostat (first compound 0.03162 µM) it was 0.788; with Crizotinib + Vorinostat (first compound 0.1 µM), 0.647; with Crizotinib + Vorinostat (first compound 0.3162 µM), 0.713; with Crizotinib + Vorinostat (first compound 1 µM), 0.725; with Carfilzomib + OSI-027 (first compound 0.001 µM) it was 0.667. In addition, the relative viability with Carfilzomib + OSI-027 (first compound 0.003162 µM) was determined as 0.708; with Carfilzomib + OSI-027 (first compound 0.01 µM), 0.85; with Carfilzomib + OSI-027 (first compound 0.03162 µM), 0.131; in the assay with Carfilzomib + OSI-027 (first compound 0.1 µM), 0.131; with Olaparib + Pictilisib (first compound 0.08 µM), 0.772; in the assay with Olaparib + Pictilisib (first compound 0.253 µM), 0.413. In addition, the relative viability with Olaparib + Pictilisib (first compound 2.53 µM) was found to be 0.452; in the assay with Olaparib + Pictilisib (first compound 8 µM) it was 0.439; with Carfilzomib + Olaparib (first compound 0.001 µM) it was 0.765; with Carfilzomib + Olaparib (first compound 0.003162 µM) it was 0.744; with Carfilzomib + Olaparib (first compound 0.01 µM), 0.702; with Carfilzomib + Olaparib (first compound 0.03162 µM), 0.265. In the assay with Carfilzomib + Olaparib (first compound 0.1 µM), the relative viability was 0.145.
With COR-L23, the relative viability came out at 0.43 with Crizotinib + Vorinostat (first compound 0.01 µM); 0.418 with Crizotinib + Vorinostat (first compound 0.03162 µM); 0.484 in the assay with Crizotinib + Vorinostat (first compound 0.1 µM); 0.4 with Crizotinib + Vorinostat (first compound 0.3162 µM); 0.471 with Crizotinib + Vorinostat (first compound 1 µM); 0.455 with Carfilzomib + OSI-027 (first compound 0.001 µM). The relative viability in the assay with Carfilzomib + OSI-027 (first compound 0.003162 µM) was determined as 0.908; with Carfilzomib + OSI-027 (first compound 0.01 µM) it was 0.762; with Carfilzomib + OSI-027 (first compound 0.03162 µM), 0.144; with Carfilzomib + OSI-027 (first compound 0.1 µM), 0.0646; with Olaparib + Pictilisib (first compound 0.08 µM), 0.918; with Olaparib + Pictilisib (first compound 0.253 µM), 0.674. The relative viability was determined as 0.724 with Olaparib + Pictilisib (first compound 2.53 µM); 0.385 with Olaparib + Pictilisib (first compound 8 µM); 0.392 with Carfilzomib + Olaparib (first compound 0.001 µM); 0.435 with Carfilzomib + Olaparib (first compound 0.003162 µM); 0.36 in the assay with Carfilzomib + Olaparib (first compound 0.01 µM); 0.0646 in the assay with Carfilzomib + Olaparib (first compound 0.03162 µM). Also, the relative viability with Carfilzomib + Olaparib (first compound 0.1 µM) is 0.0712.
In the case of COR-L 105, the relative viability with Crizotinib + Vorinostat (first compound 0.01 µM) turned out to be 0.824; in the assay with Crizotinib + Vorinostat (first compound 0.03162 µM), 0.96; in the assay with Crizotinib + Vorinostat (first compound 0.1 µM) it was 0.696; in the assay with Crizotinib + Vorinostat (first compound 0.3162 µM), 0.858; with Crizotinib + Vorinostat (first compound 1 µM), 0.893; in the assay with Carfilzomib + OSI-027 (first compound 0.001 µM) it was 0.805. Further, the relative viability with Carfilzomib + OSI-027 (first compound 0.003162 µM) is 0.82; with Carfilzomib + OSI-027 (first compound 0.01 µM), 0.699; with Carfilzomib + OSI-027 (first compound 0.03162 µM), 0.271; with Carfilzomib + OSI-027 (first compound 0.1 µM), 0.191; in the assay with Olaparib + Pictilisib (first compound 0.08 µM), 0.389; in the assay with Olaparib + Pictilisib (first compound 0.253 µM), 0.392. Further, the relative viability came to 0.415 in the assay with Olaparib + Pictilisib (first compound 2.53 µM); 0.387 with Olaparib + Pictilisib (first compound 8 µM); 0.704 with Carfilzomib + Olaparib (first compound 0.001 µM); 0.735 in the assay with Carfilzomib + Olaparib (first compound 0.003162 µM); 0.716 with Carfilzomib + Olaparib (first compound 0.01 µM); 0.465 with Carfilzomib + Olaparib (first compound 0.03162 µM). In addition, the relative viability in the assay with Carfilzomib + Olaparib (first compound 0.1 µM) stood at 0.301.
Consider Calu-6, for which the relative viability with Olaparib + Pictilisib (first compound 0.08 µM) was 1.12; with Olaparib + Pictilisib (first compound 0.253 µM), 0.825; in the assay with Olaparib + Pictilisib (first compound 2.53 µM) it was 0.858; with Olaparib + Pictilisib (first compound 8 µM), 0.75; with Carfilzomib + Olaparib (first compound 0.001 µM) it was 0.52; with Carfilzomib + Olaparib (first compound 0.003162 µM), 0.628. Moreover, the relative viability came to 0.504 with Carfilzomib + Olaparib (first compound 0.01 µM), 0.0906 with Carfilzomib + Olaparib (first compound 0.03162 µM) and 0.0789 with Carfilzomib + Olaparib (first compound 0.1 µM).
